# Results published in patent US20060122153A1, “Antineoplastic ether lipid compounds with modifications at the sn-2 carbon” (priority 2003, published 2006).
# “Also recorded” adds a separate entry of the source.
# How the values were obtained:
# Assay type in all cases: cell-based, human
# OVCAR-8 = test: NCI growth inhibition screen, ovarian panel; parameters: key: = means equivalent activity; + means that it appears to be significantly better (i.e., by ˜2x); < means it appears to be less active than ET18OCH3 (˜2x); a combination like =/+ or </+ means that activity is dependent upon the isomer; a combination like =/+ or </+ means that activity is dependent upon the isomer; details: OVCAR-8, Ovarian; from GI50s
# Procedure: (§1) Candidates deemed suitable for in vivo testing were then synthesized in large scale quantities and some of this material was sent to the NCI's Developmental Therapeutics Program for a battery of growth inhibitory studies against various human tumor cell lines (60 cell lines, 9 different panels). The remainder of the material was used to assess in vivo efficacy using murine tumor models. Additionally, studies were conducted on the lead candidates to discern mechanism of action with particular emphasis on these agents apoptotic ability as measured by caspase 3 activity. The details (materials and methods) for these various assays are described further in the following discussion.
# (§2) Ten compounds were also sent to NCI's Drug Discovery Program for screening against numerous human tumor cell lines (9 panels total: renal ovarian, colon, CNS, non-small cell lung, leukemia, breast, melanoma, and prostate). The data are shown in FIGS. 2a-i which also include data regarding D- and L-ET-18-OCH3 (listed as L-EL and D-EL in the figures). Upon examining the data, one is struck by how 1R and 1a′S standout in comparison to the other compounds, especially for the renal, ovarian, colon, and CNS panels.
# SK-OV-3 = test: NCI growth inhibition screen, ovarian panel; parameters: key: = means equivalent activity; + means that it appears to be significantly better (i.e., by ˜2x); < means it appears to be less active than ET18OCH3 (˜2x); a combination like =/+ or </+ means that activity is dependent upon the isomer; a combination like =/+ or </+ means that activity is dependent upon the isomer; details: SK-OV-3, Ovarian; from GI50s
# Procedure: as §1, §2
# OVCAR-3 = test: NCI growth inhibition screen, ovarian panel; parameters: key: = means equivalent activity; + means that it appears to be significantly better (i.e., by ˜2x); < means it appears to be less active than ET18OCH3 (˜2x); a combination like =/+ or </+ means that activity is dependent upon the isomer; a combination like =/+ or </+ means that activity is dependent upon the isomer; details: OVCAR-3, Ovarian; from GI50s
# Procedure: as §1, §2
# IGROV1 = test: NCI growth inhibition screen, ovarian panel; parameters: key: = means equivalent activity; + means that it appears to be significantly better (i.e., by ˜2x); < means it appears to be less active than ET18OCH3 (˜2x); a combination like =/+ or </+ means that activity is dependent upon the isomer; a combination like =/+ or </+ means that activity is dependent upon the isomer; details: from GI50s
# Procedure: as §1, §2
# [1] = test system: DEVDase activity (Caspase 3) in U937 cell line; test: DEVDase activity in U937 cell line
# Procedure: Suspension cells were seeded at density 3.2×10^5 cells per mL in RPMI-1640 medium (Bio-Whittaker) supplemented with 10% heat inactivated FBS (Bio-Whittaker). Cells were pre-incubated overnight prior to treatment with the ether lipid compounds of the invention. At treatment time cell density was 5×10^5 cells per mL. Cells were incubated with the ether lipid compounds of the invention for various periods of time, usually 6 hours. Cells were collected, washed with 1×DPBS and resuspended in 110 μl of Buffer A (10 mM BEPES-KOH, pH 7.4, 2 mM EDTA, 0.1% CHAPS, 5 mM DTT, 1:100 dilution of protease inhibitors cocktail (Sigma)-DTT and protease inhibitors should be added just before use). […]
# Measurement of DEVDase activity was carried out in 100 μl volume, where 10 μg of protein was delivered in 50 μl of Buffer A and 40 μM of substrate Ac-DEVD-AMC was also delivered in 50 μl of Buffer A. All measurements were done in triplicates. Reaction was carried out for 1 hour and generation of fluorescent product of reaction (aminomethylcoumarin) was measured by reading fluorescence at 1em 460 nm (1ex 360 nm). Changes in DEVDase activity were calculated after subtraction of background fluorescence of substrate incubated without proteins, and were expressed as percent of control (DEVDase activity in untreated cells). […]
# MDA-MB-435 = test: NCI growth inhibition screen, breast panel; parameters: key: = means equivalent activity; + means that it appears to be significantly better (i.e., by ˜2x); < means it appears to be less active than ET18OCH3 (˜2x); a combination like =/+ or </+ means that activity is dependent upon the isomer; a combination like =/+ or </+ means that activity is dependent upon the isomer; details: MDA-MB-435, Breast; from GI50s
# Procedure: as §1, §2
# MDA-N = test: NCI growth inhibition screen, breast panel; parameters: key: = means equivalent activity; + means that it appears to be significantly better (i.e., by ˜2x); < means it appears to be less active than ET18OCH3 (˜2x); a combination like =/+ or </+ means that activity is dependent upon the isomer; a combination like =/+ or </+ means that activity is dependent upon the isomer; details: from GI50s
# Procedure: as §1, §2
# HS 578T = test: NCI growth inhibition screen, breast panel; parameters: key: = means equivalent activity; + means that it appears to be significantly better (i.e., by ˜2x); < means it appears to be less active than ET18OCH3 (˜2x); a combination like =/+ or </+ means that activity is dependent upon the isomer; a combination like =/+ or </+ means that activity is dependent upon the isomer; details: from GI50s
# Procedure: as §1, §2
# NCI/ADR-RES = test: NCI growth inhibition screen, breast panel; parameters: key: = means equivalent activity; + means that it appears to be significantly better (i.e., by ˜2x); < means it appears to be less active than ET18OCH3 (˜2x); a combination like =/+ or </+ means that activity is dependent upon the isomer; a combination like =/+ or </+ means that activity is dependent upon the isomer; details: from GI50s
# Procedure: as §1, §2
# MDA-MB-231/ATCC = test: NCI growth inhibition screen, breast panel; parameters: key: = means equivalent activity; + means that it appears to be significantly better (i.e., by ˜2x); < means it appears to be less active than ET18OCH3 (˜2x); a combination like =/+ or </+ means that activity is dependent upon the isomer; a combination like =/+ or </+ means that activity is dependent upon the isomer; details: from GI50s
# Procedure: as §1, §2
Compound,Performance as compared to ET-18-O—CH3 (OVCAR-8),Performance as compared to ET-18-O—CH3 (SK-OV-3),Performance as compared to ET-18-O—CH3 (OVCAR-3),Performance as compared to ET-18-O—CH3 (IGROV1),DEVDase activity compared to ET-18-OCH3 (in words) [1],Performance as compared to ET-18-O—CH3 (MDA-MB-435),Performance as compared to ET-18-O—CH3 (MDA-N),Performance as compared to ET-18-O—CH3 (HS 578T),Performance as compared to ET-18-O—CH3 (NCI/ADR-RES),Performance as compared to ET-18-O—CH3 (MDA-MB-231/ATCC)
CCCCCCCCCCCCCCCCCCOC[C@@H](COP(=O)([O-])OCC[N+](C)(C)C)OS(C)(=O)=O [1a′S],0,0,0,0,equivalent to ET-18-OCH3; also recorded: more active than 1aR,0,0,0,0,0
CCCCCCCCCCCCCCCCCCOCC(COP(=O)([O-])OCC[N+](C)(C)C)OS(C)(=O)=O (centres unmarked) [Compound 1aR],=,=,=,=,equivalent to ET-18-OCH3,=,=,=,=,=
